Key:
B-RAF V600E = target: T1, B-RAF V600E (Homo sapiens, UniProt P15056, V600E); test: Target protein degradation, assay C: T-Rex 293 cells, HA-BRAF_V600E, 384 well format; format: cell-based; details: T-Rex 293 HA-BRAF_V600E cells, 24 hours, Examples 83-269; for DC50: Assay C; for Dmax: T-REx-293, Assay C
T1 construct: expressed in transfected cells; host or cells: T-Rex 293 cells (Invitrogen #R71007)
Method in brief: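 T-Rex 293 cells stably expressing doxycycline-induced (1 ng/mL) HA-BRAF V600E were treated 24 h at 37 °C with compound (300 nM–5 pM, 11 points, 0.5% DMSO). HA immunofluorescence was quantified by high-content imaging to give DC50 and Dmax (% of control); nuclei counts versus DMSO gauged toxicity.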

B-RAF G466V = target: T2, B-RAF G466V (Homo sapiens, UniProt P15056, G466V); test: Target protein degradation, assay D: T-Rex 293 cells, HA-BRAF_G466V, 384 well format; format: cell-based; details: T-Rex 293 HA-BRAF_G466V cells, 24 hours, Examples 83-269; for DC50: Assay D; for Dmax: T-REx-293, Assay D
T2 construct: expressed in transfected cells; host or cells: T-Rex 293 cells (Invitrogen #R71007)
Method in brief: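 T-Rex 293 cells stably expressing doxycycline-induced (1 ng/mL) HA-BRAF G466V treated 24 h at 37 °C with PROTACs, 11-point 1:3 dilution, 300 nM to 5 pM final, 0.5% DMSO. Fixed cells immunostained for HA and imaged by high-content microscopy; DC50 and Dmax (% of control) derived, toxicity from nuclei counts versus DMSO.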

T2 sequence (P15056 whole entry G466V): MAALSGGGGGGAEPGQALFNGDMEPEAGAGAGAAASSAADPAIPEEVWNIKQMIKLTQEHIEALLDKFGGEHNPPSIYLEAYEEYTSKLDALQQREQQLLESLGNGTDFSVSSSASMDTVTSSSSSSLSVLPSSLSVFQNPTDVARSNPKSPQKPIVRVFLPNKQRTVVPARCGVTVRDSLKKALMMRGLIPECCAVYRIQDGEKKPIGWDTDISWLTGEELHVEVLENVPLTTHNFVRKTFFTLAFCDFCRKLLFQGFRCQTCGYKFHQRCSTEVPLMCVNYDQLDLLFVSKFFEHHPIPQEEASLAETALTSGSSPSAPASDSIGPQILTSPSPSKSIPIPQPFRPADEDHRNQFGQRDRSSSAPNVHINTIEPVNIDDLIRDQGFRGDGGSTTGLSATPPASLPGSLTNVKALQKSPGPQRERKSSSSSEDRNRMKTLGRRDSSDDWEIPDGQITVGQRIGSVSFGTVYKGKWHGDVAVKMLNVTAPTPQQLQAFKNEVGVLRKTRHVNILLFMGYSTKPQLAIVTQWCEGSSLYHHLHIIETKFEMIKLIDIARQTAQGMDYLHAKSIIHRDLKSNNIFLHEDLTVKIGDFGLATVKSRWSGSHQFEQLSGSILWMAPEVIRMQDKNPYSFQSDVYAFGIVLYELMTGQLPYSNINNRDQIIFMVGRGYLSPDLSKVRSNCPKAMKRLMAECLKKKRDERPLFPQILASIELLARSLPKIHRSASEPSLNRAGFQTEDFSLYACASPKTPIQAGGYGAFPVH
T1 sequence (P15056 whole entry V600E): as the sequence (P15056 whole entry G466V) above, with V466G, V600E counted along it

Row | Compound | DC50 (B-RAF V600E) [µM] | Dmax (B-RAF V600E) [%] | DC50 (B-RAF G466V) [µM] | Dmax (B-RAF G466V) [%]
1 | N#Cc1c(NS(=O)(=O)N2CC[C@@H](F)C2)ccc(F)c1Oc1ccc2ncn(-c3ccc(N4CCN([C@H]5C[C@H](OC6CCN(c7ccc8c(c7)CN(C7CCC(=O)NC7=O)C8=O)CC6)C5)CC4)cc3)c(=O)c2c1 (stereo partly drawn) [Example 251, (3R)-N-(2-cyano-4-fluoro-3-{[4-oxo-3-(4-(4-[(1r,3r)-3-({1-[2-(2,6-dioxopiperidin-3-yl)-1-oxo-2,3-dihydro-1H-isoindol-5-yl]piperidin-4-yl}oxy)cyclobutyl]piperazin-1-yl}phenyl)-3,4-dihydroquinazolin-6-yl]oxy}phenyl)-3-fluoropyrrolidine-1-sulfonamide] | 0.05 to 0.5 | 35 to 70 | 0.001 to 0.01 | 35 to 70
2 | Cc1cc(N2CC(CN3CCN(c4ccc(-n5cnc6ccc(Oc7c(F)ccc(NS(=O)(=O)N8CC[C@@H](F)C8)c7C#N)cc6c5=O)cc4)CC3)C2)cc2c1C(=O)N([C@@H]1CCC(=O)NC1=O)C2 [Example 235, (3R)-N-(2-cyano-3-{[3-(4-{4-[(1-{2-[(3R)-2,6-dioxopiperidin-3-yl]-7-methyl-1-oxo-2,3-dihydro-1H-isoindol-5-yl}azetidin-3-yl)methyl]piperazin-1-yl}phenyl)-4-oxo-3,4-dihydroquinazolin-6-yl]oxy}-4-fluorophenyl)-3-fluoropyrrolidine-1-sulfonamide] | 0.05 to 0.5 | 35 to 70 | 0.001 to 0.01 | 35 to 70
3 | N#Cc1c(NS(=O)(=O)N2CC[C@@H](F)C2)ccc(F)c1Oc1ccc2ncn(-c3ccc(N4CCC(CN5CC(c6ccc7c(c6)CN([C@H]6CCC(=O)NC6=O)C7=O)C5)CC4)cc3)c(=O)c2c1 [Example 215, (3R)-N-(2-cyano-3-{[3-(4-{4-[(3-{2-[(3S)-2,6-dioxopiperidin-3-yl]-1-oxo-2,3-dihydro-1H-isoindol-5-yl}azetidin-1-yl)methyl]piperidin-1-yl}phenyl)-4-oxo-3,4-dihydroquinazolin-6-yl]oxy}-4-fluorophenyl)-3-fluoropyrrolidine-1-sulfonamide] | 0.05 to 0.5 | 35 to 70 | 0.001 to 0.01 | ≤ 35
4 | N#Cc1c(NS(=O)(=O)N2CC[C@@H](F)C2)ccc(F)c1Oc1ccc2ncn(-c3ccc(N4CC(CN5CC(c6ccc7c(c6)CN([C@@H]6CCC(=O)NC6=O)C7=O)C5)C4)cc3)c(=O)c2c1 [Example 205, (3R)-N-(2-cyano-3-{[3-(4-{3-[(3-{2-[(3R)-2,6-dioxopiperidin-3-yl]-1-oxo-2,3-dihydro-1H-isoindol-5-yl}azetidin-1-yl)methyl]azetidin-1-yl}phenyl)-4-oxo-3,4-dihydroquinazolin-6-yl]oxy}-4-fluorophenyl)-3-fluoropyrrolidine-1-sulfonamide] | 0.05 to 0.5 | ≤ 35 | 0.001 to 0.01 | ≤ 35
5 | N#Cc1c(NS(=O)(=O)N2CC[C@@H](F)C2)ccc(F)c1Oc1ccc2ncn(-c3ccc(N4CCC(CC5CCCN5c5ccc6c(c5)C(=O)N(C5CCC(=O)NC5=O)C6=O)CC4)nc3)c(=O)c2c1 (stereo partly drawn) [Example 160, (3R)-N-{2-cyano-3-[(3-{6-[4-({1-[2-(2,6-dioxopiperidin-3-yl)-1,3-dioxo-2,3-dihydro-1H-isoindol-5-yl]pyrrolidin-2-yl}methyl)piperidin-1-yl]pyridin-3-yl}-4-oxo-3,4-dihydroquinazolin-6-yl)oxy]-4-fluorophenyl}-3-fluoropyrrolidine-1-sulfonamide] | 0.05 to 0.5 | ≤ 35 | > 0.03 | 
6 | Cc1c(N2CCC(CN3CCN(c4ccc(-n5cnc6ccc(Oc7c(F)ccc(NS(=O)(=O)N8CC[C@@H](F)C8)c7C#N)cc6c5=O)cc4)CC3)CC2)ccc2c1CN(C1CCC(=O)NC1=O)C2=O (single isomer, unassigned) [Example 113, (3R)-N-(2-cyano-3-{[3-(4-{4-[(1-{2-[(3R*)-2,6-dioxopiperidin-3-yl]-4-methyl-1-oxo-2,3-dihydro-1H-isoindol-5-yl}piperidin-4-yl)methyl]piperazin-1-yl}phenyl)-4-oxo-3,4-dihydroquinazolin-6-yl]oxy}-4-fluorophenyl)-3-fluoropyrrolidine-1-sulfonamide] | 0.05 to 0.5 |  | 0.001 to 0.01 | 
7 | COc1cc(N2CCN(CC3CCN(c4ccc(-n5cnc6ccc(Oc7c(F)ccc(NS(=O)(=O)N8CC[C@@H](F)C8)c7C#N)cc6c5=O)cn4)CC3)CC2)cc2c1C(=O)N(C1CCC(=O)NC1=O)C2=O (stereo partly drawn) [Example 138, (3R)-N-{2-cyano-3-[(3-{6-[4-({4-[2-(2,6-dioxopiperidin-3-yl)-7-methoxy-1,3-dioxo-2,3-dihydro-1H-isoindol-5-yl]piperazin-1-yl}methyl)piperidin-1-yl]pyridin-3-yl}-4-oxo-3,4-dihydroquinazolin-6-yl)oxy]-4-fluorophenyl}-3-fluoropyrrolidine-1-sulfonamide] | 0.05 to 0.5 | ≤ 35 | 0.001 to 0.01 | ≤ 35
8 | N#Cc1c(NS(=O)(=O)N2CC[C@@H](F)C2)ccc(F)c1Oc1ccc2ncn(-c3ccc(N4CCC(CN5CC6(CCN(c7ccc8c(c7)CN([C@H]7CCC(=O)NC7=O)C8=O)CC6)C5)C4)cc3)c(=O)c2c1 (stereo partly drawn) [Example 233, (3R)-N-(2-cyano-3-{[3-(4-{3-[(7-{2-[(3S)-2,6-dioxopiperidin-3-yl]-1-oxo-2,3-dihydro-1H-isoindol-5-yl}-2,7-diazaspiro[3.5]nonan-2-yl)methyl]pyrrolidin-1-yl}phenyl)-4-oxo-3,4-dihydroquinazolin-6-yl]oxy}-4-fluorophenyl)-3-fluoropyrrolidine-1-sulfonamide] | 0.05 to 0.5 | 35 to 70 | 0.01 to 0.03 | 35 to 70

Results, then the molecule that gave them:

Row | DC50 (B-RAF V600E) [µM] | Dmax (B-RAF V600E) [%] | DC50 (B-RAF G466V) [µM] | Dmax (B-RAF G466V) [%] | Compound
9 | 0.05 to 0.5 | 35 to 70 | 0.001 to 0.01 | ≤ 35 | N#Cc1c(NS(=O)(=O)N2CC[C@@H](F)C2)ccc(F)c1Oc1ccc2ncn(-c3cnc(C4(N5CCN(CC6CCN(c7ccc(C8CCC(=O)NC8=O)cc7F)CC6)CC5)CC4)nc3)c(=O)c2c1 (stereo partly drawn) [Example 106, (3R)-N-(2-cyano-3-{[3-(2-{1-[4-({1-[4-(2,6-dioxopiperidin-3-yl)-2-fluorophenyl]piperidin-4-yl}methyl)piperazin-1-yl]cyclopropyl}pyrimidin-5-yl)-4-oxo-3,4-dihydroquinazolin-6-yl]oxy}-4-fluorophenyl)-3-fluoropyrrolidine-1-sulfonamide]
10 | 0.005 to 0.05 | ≤ 35 | 0.001 to 0.01 | 35 to 70 | N#Cc1c(NS(=O)(=O)N2CC[C@@H](F)C2)ccc(F)c1Oc1ccc2ncn(-c3ccc(N4CCC5(CC4)CC(OC4CCN(c6ccc7c(c6)CN([C@@H]6CCC(=O)NC6=O)C7=O)CC4)C5)cc3)c(=O)c2c1 [Example 252, (3R)-N-(2-cyano-3-{[3-(4-{2-[(1-{2-[(3R)-2,6-dioxopiperidin-3-yl]-1-oxo-2,3-dihydro-1H-isoindol-5-yl}piperidin-4-yl)oxy]-7-azaspiro[3.5]nonan-7-yl}phenyl)-4-oxo-3,4-dihydroquinazolin-6-yl]oxy}-4-fluorophenyl)-3-fluoropyrrolidine-1-sulfonamide]
11 | 0.05 to 0.5 | 35 to 70 | 0.001 to 0.01 | 35 to 70 | CCN(CC1CCN(c2ccc(-n3cnc4ccc(Oc5c(F)ccc(NS(=O)(=O)N6CC[C@@H](F)C6)c5C#N)cc4c3=O)cc2)CC1)[C@H]1C[C@@H](Oc2ccc3c(c2)CN([C@H]2CCC(=O)NC2=O)C3=O)C1 [Example 264, (3R)-N-{2-cyano-3-[(3-{4-[4-({ethyl[(1r,3r)-3-({2-[(3S)-2,6-dioxopiperidin-3-yl]-1-oxo-2,3-dihydro-1H-isoindol-5-yl}oxy)cyclobutyl]amino}methyl)piperidin-1-yl]phenyl}-4-oxo-3,4 dihydroquinazolin-6-yl)oxy]-4-fluorophenyl}-3-fluoropyrrolidine-1-sulfonamide]
12 | 0.05 to 0.5 | 35 to 70 | 0.001 to 0.01 | 35 to 70 | N#Cc1c(NS(=O)(=O)N2CC[C@@H](F)C2)ccc(F)c1Oc1ccc2ncn(-c3ccc(N4CCC(CN5CC6(C5)CN(c5ccc7c(c5)C(=O)N(C5CCC(=O)NC5=O)C7=O)C6)CC4)nc3)c(=O)c2c1 (stereo partly drawn) [Example 171, (3R)-N-{2-cyano-3-[(3-{6-[4-({6-[2-(2,6-dioxopiperidin-3-yl)-1,3-dioxo-2,3-dihydro-1H-isoindol-5-yl]-2,6-diazaspiro[3.3]heptan-2-yl}methyl)piperidin-1-yl]pyridin-3-yl}-4-oxo-3,4-dihydroquinazolin-6-yl)oxy]-4-fluorophenyl}-3-fluoropyrrolidine-1-sulfonamide]
13 | 0.005 to 0.05 | ≤ 35 | 0.001 to 0.01 | ≤ 35 | N#Cc1c(NS(=O)(=O)N2CC[C@@H](F)C2)ccc(F)c1Oc1ccc2ncn(-c3ccc(N4CC(CN5CCN(C6CCN(c7ccc8c(c7)C(=O)N(C7CCC(=O)NC7=O)C8=O)CC6)CC5)C4)nc3)c(=O)c2c1 (stereo partly drawn) [Example 170, (3R)-N-(2-cyano-3-{[3-(6-{3-[(4-{1-[2-(2,6-dioxopiperidin-3-yl)-1,3-dioxo-2,3-dihydro-1H-isoindol-5-yl]piperidin-4-yl}piperazin-1-yl)methyl]azetidin-1-yl}pyridin-3-yl)-4-oxo-3,4-dihydroquinazolin-6-yl]oxy}-4-fluorophenyl)-3-fluoropyrrolidine-1-sulfonamide]

From US11957759B1, “Rapidly accelerated fibrosarcoma (RAF) degrading compounds and associated methods of use” (Arvinas Operations, Inc., priority 2022, dated 2024)
